Assay results from patent US6737383B1, “Herbicidal oxadiazolidines” (priority 1999, dated 2004).

Columns and labels:
[1] = system: crabgrass; experiment: Test B pre/postemergence crabgrass; type: in vivo, Digitaria sanguinalis; settings: for Crabgrass plant response rating: scale of 0 to 10 where 0 is no effect and 10 is complete control
How it was run: (§1)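 Test chemicals in a non-phytotoxic solvent mixture with surfactant were sprayed preemergence onto planted seeds and postemergence onto plants 2 to 18 cm tall (1- to 4-leaf stage). After twelve to sixteen days in a greenhouse, injury was visually rated against untreated controls from 0 (no effect) to 10 (complete control).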

[2] = system: duck salad; experiment: Test B flood test duck salad; type: in vivo, Heteranthera limosa
How it was run: (§2)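 Each value is a visual injury score relative to controls, with 10 meaning complete control and 0 no effect. Evaluation took place twelve to sixteen days after the 2-leaf-stage plants were treated and kept in the greenhouse.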

[3] = system: rape; experiment: Test B pre/postemergence rape; type: in vivo, Brassica napus; settings: for Rape plant response rating: scale of 0 to 10 where 0 is no effect and 10 is complete control
How it was run: as §1

[4] = system: soybean; experiment: Test B pre/postemergence soybean; type: in vivo, Glycine max; settings: for Soybean plant response rating: scale of 0 to 10 where 0 is no effect and 10 is complete control
How it was run: as §1

[5] = system: velvetleaf; experiment: Test B pre/postemergence velvetleaf; type: in vivo, Abutilon theophrasti; settings: for Velvetleaf plant response rating: scale of 0 to 10 where 0 is no effect and 10 is complete control
How it was run: as §1

[6] = system: giant foxtail; experiment: Test B pre/postemergence giant foxtail; type: in vivo, Setaria faberii; settings: for Giant foxtail plant response rating: scale of 0 to 10 where 0 is no effect and 10 is complete control
How it was run: as §1

[7] = system: corn; experiment: Test B pre/postemergence corn; type: in vivo, Zea mays; settings: for Corn plant response rating: scale of 0 to 10 where 0 is no effect and 10 is complete control
How it was run: as §1

[8] = system: rice; experiment: Test B flood test rice; type: in vivo, Oryza sativa
How it was run: as §2

[9] = system: wild oat; experiment: Test B pre/postemergence wild oat; type: in vivo, Avena fatua; settings: for Wild oats plant response rating: scale of 0 to 10 where 0 is no effect and 10 is complete control
How it was run: as §1

[10] = system: pigweed; experiment: Test B pre/postemergence pigweed; type: in vivo, Amaranthus retroflexus; settings: for Redroot pigweed plant response rating: scale of 0 to 10 where 0 is no effect and 10 is complete control
How it was run: as §1

[11] = system: wheat; experiment: Test B pre/postemergence wheat; type: in vivo, Triticum aestivum; settings: for Wheat plant response rating: scale of 0 to 10 where 0 is no effect and 10 is complete control
How it was run: as §1

[12] = system: purple nutsedge; experiment: Test B pre/postemergence purple nutsedge; type: in vivo, Cyperus rotundus; settings: for Nutsedge plant response rating: scale of 0 to 10 where 0 is no effect and 10 is complete control
How it was run: as §1

[13] = system: sugar beet; experiment: Test B pre/postemergence sugar beet; type: in vivo, Beta vulgaris; settings: for Sugarbeets plant response rating: scale of 0 to 10 where 0 is no effect and 10 is complete control
How it was run: as §1

[14] = system: cocklebur; experiment: Test B pre/postemergence cocklebur; type: in vivo, Xanthium strumarium; settings: for Cocklebur plant response rating: scale of 0 to 10 where 0 is no effect and 10 is complete control
How it was run: as §1

[15] = system: morningglory; experiment: Test B pre/postemergence morningglory; type: in vivo, Ipomoea hederacea; settings: for Morningglory plant response rating: scale of 0 to 10 where 0 is no effect and 10 is complete control
How it was run: as §1

[16] = system: bamyardgrass; experiment: Test B flood test barnyardgrass; type: in vivo, Echinochloa crus-galli
How it was run: as §2

[17] = Postemergence, Rate 125 g/ha, scale 0 to 10, 0 is no effect, 10 is complete control
[18] = Postemergence, Rate 250 g/ha, scale 0 to 10, 0 is no effect, 10 is complete control
[19] = Preemergence, Rate 62 g/ha, scale 0 to 10 (0 no effect, 10 complete control)
[20] = Rate 500 g/ha, Postemergence, scale 0 to 10, 0 no effect, 10 complete control
[21] = Postemergence (flood test), Rate 125 g/ha, scale 0 to 10, 0 is no effect, 10 is complete control
[22] = Rate 62 g/ha, Postemergence (flood test species), scale of 0 to 10 where 0 is no effect and 10 is complete control
[23] = Rate 500 g/ha, listed under Postemergence (flood test species), scale 0 to 10, 0 no effect, 10 complete control
[24] = flood test species, listed under Postemergence, Rate 250 g/ha, scale 0 to 10, 0 is no effect, 10 is complete control

With `CC(C)N(C(=O)n1oc(=O)n(C2(C)CC2)c1=O)c1ccccc1` [Compound 360] the “Plant response rating, Crabgrass” value [1, 17] was 2, the “Plant response rating, Crabgrass” value [1, 18] was 5 and the “Plant response rating, Crabgrass” value [1, 19] was 9. For the same compound, the “Crabgrass plant response rating (0 to 10 scale)” value ([1]; Preemergence, Rate 125 g/ha) was 10, the “Crabgrass plant response rating” value ([1]; Preemergence, Rate 250 g/ha) was 10 and the “Crabgrass plant response rating” value ([1]; Preemergence, Rate 500 g/ha) was 10. The “Crabgrass plant response rating” value ([1]; Rate 62 g/ha, Postemergence) was 2, the “Plant response rating, Crabgrass” value [1, 20] was 5 and the “Plant response rating, Ducksalad” value [2, 21] was 0. The “Ducksalad plant response rating” value [2, 22] was 0, the “Plant response rating, Ducksalad” value [2, 23] was 0 and the “Plant response rating, Ducksalad” value [2, 24] was 0. For the same compound, the “Plant response rating, Rape” value [3, 17] was 0, the “Plant response rating, Rape” value [3, 18] was 0 and the “Plant response rating, Rape” value [3, 19] was 0. For the same compound, the “Rape plant response rating (0 to 10 scale)” value ([3]; Preemergence, Rate 125 g/ha) was 0, the “Rape plant response rating” value ([3]; Preemergence, Rate 250 g/ha) was 0 and the “Rape plant response rating” value ([3]; Preemergence, Rate 500 g/ha) was 0. The “Rape plant response rating” value ([3]; Rate 62 g/ha, Postemergence) was 0, the “Plant response rating, Rape” value [3, 20] was 0 and the “Plant response rating, Soybean” value [4, 17] was 2. The “Plant response rating, Soybean” value [4, 18] was 2, the “Plant response rating, Soybean” value [4, 19] was 0 and the “Soybean plant response rating (0 to 10 scale)” value ([4]; Preemergence, Rate 125 g/ha) was 0. For the same compound, the “Soybean plant response rating” value ([4]; Preemergence, Rate 250 g/ha) was 0, the “Soybean plant response rating” value ([4]; Preemergence, Rate 500 g/ha) was 5 and the “Soybean plant response rating” value ([4]; Rate 62 g/ha, Postemergence) was 1. The “Plant response rating, Soybean” value [4, 20] was 3, the “Plant response rating, Velvetleaf” value [5, 17] was 0 and the “Plant response rating, Velvetleaf” value [5, 18] was 0. For the same compound, the “Plant response rating, Velvetleaf” value [5, 19] was 3, the “Velvetleaf plant response rating (0 to 10 scale)” value ([5]; Preemergence, Rate 125 g/ha) was 6 and the “Velvetleaf plant response rating” value ([5]; Preemergence, Rate 250 g/ha) was 7. For the same compound, the “Velvetleaf plant response rating” value ([5]; Preemergence, Rate 500 g/ha) was 7, the “Velvetleaf plant response rating” value ([5]; Rate 62 g/ha, Postemergence) was 0 and the “Plant response rating, Velvetleaf” value [5, 20] was 4. For the same compound, the “Plant response rating, Giant foxtail” value [6, 17] was 8, the “Plant response rating, Giant foxtail” value [6, 18] was 8 and the “Plant response rating, Giant foxtail” value [6, 19] was 10. For the same compound, the “Giant foxtail plant response rating (0 to 10 scale)” value ([6]; Preemergence, Rate 125 g/ha) was 10, the “Giant foxtail plant response rating” value ([6]; Preemergence, Rate 250 g/ha) was 10 and the “Giant foxtail plant response rating” value ([6]; Preemergence, Rate 500 g/ha) was 10. The “Giant foxtail plant response rating” value ([6]; Rate 62 g/ha, Postemergence) was 8, the “Plant response rating, Giant foxtail” value [6, 20] was 8 and the “Plant response rating, Corn” value [7, 17] was 2. The “Plant response rating, Corn” value [7, 18] was 6, the “Plant response rating, Corn” value [7, 19] was 0 and the “Corn plant response rating (0 to 10 scale)” value ([7]; Preemergence, Rate 125 g/ha) was 3. The “Corn plant response rating” value ([7]; Preemergence, Rate 250 g/ha) was 4, the “Corn plant response rating” value ([7]; Preemergence, Rate 500 g/ha) was 9 and the “Corn plant response rating” value ([7]; Rate 62 g/ha, Postemergence) was 2. The “Plant response rating, Corn” value [7, 20] was 7, the “Plant response rating, Rice” value [8, 21] was 0 and the “Rice plant response rating” value [8, 22] was 0. The “Plant response rating, Rice” value [8, 23] was 3, the “Plant response rating, Rice” value [8, 24] was 3 and the “Plant response rating, Wild oats” value [9, 17] was 3. The “Plant response rating, Wild oats” value [9, 18] was 3, the “Plant response rating, Wild oats” value [9, 19] was 3 and the “Wild oats plant response rating (0 to 10 scale)” value ([9]; Preemergence, Rate 125 g/ha) was 10. The “Wild oats plant response rating” value ([9]; Preemergence, Rate 250 g/ha) was 10, the “Wild oats plant response rating” value ([9]; Preemergence, Rate 500 g/ha) was 10 and the “Wild oats plant response rating” value ([9]; Rate 62 g/ha, Postemergence) was 3. For the same compound, the “Plant response rating, Wild oats” value [9, 20] was 5, the “Plant response rating, Redroot pigweed” value [10, 17] was 0 and the “Plant response rating, Redroot pigweed” value [10, 18] was 3. For the same compound, the “Plant response rating, Redroot pigweed” value [10, 19] was 5, the “Redroot pigweed plant response rating (0 to 10 scale)” value ([10]; Preemergence, Rate 125 g/ha) was 5 and the “Redroot pigweed plant response rating” value ([10]; Preemergence, Rate 250 g/ha) was 10. For the same compound, the “Redroot pigweed plant response rating” value ([10]; Preemergence, Rate 500 g/ha) was 10, the “Redroot pigweed plant response rating” value ([10]; Rate 62 g/ha, Postemergence) was 0 and the “Plant response rating, Redroot pigweed” value [10, 20] was 6. The “Plant response rating, Wheat” value [11, 17] was 4, the “Plant response rating, Wheat” value [11, 18] was 4 and the “Plant response rating, Wheat” value [11, 19] was 3. The “Wheat plant response rating (0 to 10 scale)” value ([11]; Preemergence, Rate 125 g/ha) was 6, the “Wheat plant response rating” value ([11]; Preemergence, Rate 250 g/ha) was 7 and the “Wheat plant response rating” value ([11]; Preemergence, Rate 500 g/ha) was 8. The “Wheat plant response rating” value ([11]; Rate 62 g/ha, Postemergence) was 3, the “Plant response rating, Wheat” value [11, 20] was 6 and the “Plant response rating, Nutsedge” value [12, 17] was 0. For the same compound, the “Plant response rating, Nutsedge” value [12, 18] was 2, the “Plant response rating, Nutsedge” value [12, 19] was 0 and the “Nutsedge plant response rating (0 to 10 scale)” value ([12]; Preemergence, Rate 125 g/ha) was 0. The “Nutsedge plant response rating” value ([12]; Preemergence, Rate 250 g/ha) was 0, the “Nutsedge plant response rating” value ([12]; Preemergence, Rate 500 g/ha) was 7 and the “Nutsedge plant response rating” value ([12]; Rate 62 g/ha, Postemergence) was 0. For the same compound, the “Plant response rating, Nutsedge” value [12, 20] was 4, the “Plant response rating, Sugarbeets” value [13, 17] was 0 and the “Plant response rating, Sugarbeets” value [13, 18] was 2. The “Plant response rating, Sugarbeets” value [13, 19] was 2, the “Sugarbeets plant response rating (0 to 10 scale)” value ([13]; Preemergence, Rate 125 g/ha) was 6 and the “Sugarbeets plant response rating” value ([13]; Preemergence, Rate 250 g/ha) was 6. For the same compound, the “Sugarbeets plant response rating” value ([13]; Preemergence, Rate 500 g/ha) was 7, the “Sugarbeets plant response rating” value ([13]; Rate 62 g/ha, Postemergence) was 0 and the “Plant response rating, Sugarbeets” value [13, 20] was 7. The “Plant response rating, Cocklebur” value [14, 17] was 0, the “Plant response rating, Cocklebur” value [14, 18] was 0 and the “Plant response rating, Cocklebur” value [14, 19] was 0. The “Cocklebur plant response rating (0 to 10 scale)” value ([14]; Preemergence, Rate 125 g/ha) was 0, the “Cocklebur plant response rating” value ([14]; Preemergence, Rate 500 g/ha) was 0 and the “Cocklebur plant response rating” value ([14]; Rate 62 g/ha, Postemergence) was 0. The “Plant response rating, Cocklebur” value [14, 20] was 0, the “Plant response rating, Morningglory” value [15, 17] was 4 and the “Plant response rating, Morningglory” value [15, 18] was 4. The “Plant response rating, Morningglory” value [15, 19] was 0, the “Morningglory plant response rating (0 to 10 scale)” value ([15]; Preemergence, Rate 125 g/ha) was 5 and the “Morningglory plant response rating” value ([15]; Preemergence, Rate 250 g/ha) was 7. The “Morningglory plant response rating” value ([15]; Preemergence, Rate 500 g/ha) was 10, the “Morningglory plant response rating” value ([15]; Rate 62 g/ha, Postemergence) was 4 and the “Plant response rating, Morningglory” value [15, 20] was 5. For the same compound, the “Plant response rating, Barnyardgrass” value [16, 21] was 2, the “Barnyardgrass plant response rating” value [16, 22] was 2 and the “Plant response rating, Barnyardgrass” value [16, 23] was 7. For the same compound, the “Plant response rating, Barnyardgrass” value [16, 24] was 6.
